Experimental data as given in the supplement of paper PMC10307832.

Columns and labels:
Assay in all cases: relative viability (nuclei count vs DMSO), 5 days (fraction); higher = more cells survive
RO-3306 + Navitoclax = compound: C1=CC2=C(C=CC(=C2)C=C3C(=O)NC(=NCC4=CC=CS4)S3)N=C1 [RO-3306] + CC1(C)CCC(c2ccc(Cl)cc2)=C(CN2CCN(c3ccc(C(=O)NS(=O)(=O)c4ccc(N[C@H](CCN5CCOCC5)CSc5ccccc5)c(S(=O)(=O)C(F)(F)F)c4)cc3)CC2)C1 [Navitoclax] (partner 0.5 µM)
How it was run: (§1)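 Each reported value is a median over duplicate plates. It expresses relative viability: treated-well nuclei count divided by vehicle-well nuclei count. Lung cancer cell lines in 1536-well plates were dosed by pin tool a day after seeding, alone with one drug or with a fixed anchor-drug dose plus five library-drug doses (not always all listed) in √10 steps, and nuclei were counted after 5 days.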

RO-3306 + Vorinostat = compound: C1=CC2=C(C=CC(=C2)C=C3C(=O)NC(=NCC4=CC=CS4)S3)N=C1 [RO-3306] + O=C(CCCCCCC(=O)Nc1ccccc1)NO [Vorinostat] (partner 1 µM)
How it was run: as §1

[1] = compound: O=S(=O)(c1ccccc1)N(CC(F)(F)F)c1ccc(C(O)(C(F)(F)F)C(F)(F)F)cc1 + CC1(C)CCC(c2ccc(Cl)cc2)=C(CN2CCN(c3ccc(C(=O)NS(=O)(=O)c4ccc(N[C@H](CCN5CCOCC5)CSc5ccccc5)c(S(=O)(=O)C(F)(F)F)c4)cc3)CC2)C1 [Navitoclax] (partner 0.5 µM)
How it was run: as §1

RO-3306 + Palbociclib = compound: C1=CC2=C(C=CC(=C2)C=C3C(=O)NC(=NCC4=CC=CS4)S3)N=C1 [RO-3306] + CC(=O)c1c(C)c2cnc(Nc3ccc(N4CCNCC4)cn3)nc2n(C2CCCC2)c1=O [Palbociclib] (partner 0.5 µM)
How it was run: as §1

Row | Cell Line | relative viability (RO-3306 + Navitoclax; first compound 0.01 µM) | relative viability (RO-3306 + Navitoclax; first compound 0.03162 µM) | relative viability (RO-3306 + Navitoclax; first compound 0.1 µM) | relative viability (RO-3306 + Navitoclax; first compound 0.3162 µM) | relative viability (RO-3306 + Navitoclax; first compound 1 µM) | relative viability (RO-3306 + Vorinostat; first compound 0.01 µM) | relative viability (RO-3306 + Vorinostat; first compound 0.03162 µM) | relative viability (RO-3306 + Vorinostat; first compound 0.1 µM) | relative viability (RO-3306 + Vorinostat; first compound 0.3162 µM) | relative viability (RO-3306 + Vorinostat; first compound 1 µM) | relative viability ([1]; first compound 0.8 µM) | relative viability ([1]; first compound 2.53 µM) | relative viability ([1]; first compound 8 µM) | relative viability (RO-3306 + Palbociclib; first compound 0.01 µM) | relative viability (RO-3306 + Palbociclib; first compound 0.03162 µM) | relative viability (RO-3306 + Palbociclib; first compound 0.1 µM) | relative viability (RO-3306 + Palbociclib; first compound 0.3162 µM) | relative viability (RO-3306 + Palbociclib; first compound 1 µM)
1 | NCI-H520 | 1.27 | 1.13 | 1.13 | 1.01 | 0.942 | 0.779 | 0.589 | 0.676 | 0.693 | 0.664 | 0.943 | 1.3 | 1.38 | 0.254 | 0.224 | 0.235 | 0.261 | 0.267
2 | NCI-H1944 | 1.11 | 1.03 | 0.963 | 1.09 | 0.993 | 0.595 | 0.566 | 0.588 | 0.562 | 0.509 | 1.03 | 1 | 1.04 | 0.336 | 0.339 | 0.34 | 0.333 | 0.333
3 | NCI-H1395 | 1.13 | 1.38 | 1.11 | 1.04 | 0.978 | 0.738 | 0.649 | 0.579 | 0.689 | 0.629 | 1.01 | 1.06 | 1.31 | 0.696 | 0.678 | 0.58 | 0.641 | 0.558
4 | NCI-H2009 | 1.2 | 1.14 | 1.17 | 1.09 | 1.13 | 0.797 | 0.739 | 0.677 | 0.81 | 0.712 | 0.965 | 1 | 0.938 | 0.216 | 0.203 | 0.18 | 0.25 | 0.203
5 | RERF-LC-KJ | 1.36 | 1.03 | 0.815 | 0.684 | 0.997 | 0.725 | 0.64 | 0.67 | 0.687 | 0.63 | 0.863 | 0.802 | 0.87 | 1.27 | 0.993 | 1.16 | 1.1 | 1.08
6 | NCI-H3122 | 1.03 | 1.03 | 0.983 | 1.05 | 1.07 | 1.07 | 0.825 | 0.993 | 1.19 | 1.06 | 1.04 | 0.964 | 1.06 | 0.188 | 0.18 | 0.19 | 0.199 | 0.209
7 | NCI-H2347 | 0.947 | 0.645 | 1.03 | 0.772 | 0.93 | 0.539 | 0.541 | 0.51 | 0.532 | 0.701 | 0.955 | 0.921 | 0.582 | 0.475 | 0.438 | 0.397 | 0.387 | 0.417
8 | NCI-H322M | 1.24 | 1.14 | 1.25 | 1.22 | 1.19 | 0.878 | 0.859 | 0.807 | 0.868 | 0.584 | 1.29 | 1.12 | 1.2 | 0.472 | 0.469 | 0.502 | 0.433 | 0.478
9 | NCI-H647 | 1.45 | 1.24 | 1.07 | 1.24 | 0.966 | 0.708 | 0.512 | 0.371 | 0.6 | 0.473 | 1.3 | 1.26 | 1.01 | 0.486 | 0.325 | 0.355 | 0.474 | 0.446
10 | NCI-H1666 | 0.954 | 0.871 | 0.858 | 0.86 | 0.779 | 0.803 | 0.952 | 1.04 | 1.05 | 0.972 | 0.756 | 0.882 | 0.99 | 0.734 | 0.631 | 0.603 | 0.616 | 0.609
11 | LOU-NH91 | 0.666 | 0.612 | 0.702 | 0.685 | 0.645 | 0.857 | 0.828 | 0.854 | 0.871 | 0.866 | 0.73 | 0.666 | 0.717 | 0.538 | 0.547 | 0.542 | 0.526 | 0.53
12 | EMC-BAC-2 | 1.44 | 0.984 | 1.25 | 1.24 | 1.14 | 0.417 | 0.354 | 0.351 | 0.534 | 0.161 | 1.25 | 1.21 | 1.13 | 0.501 | 0.461 | 0.514 | 0.516 | 0.494
13 | NCI-H2085 | 1.12 | 1.08 | 1.09 | 1.17 | 1.07 | 0.83 | 0.733 | 0.775 | 0.781 | 0.8 | 1.14 | 1 | 1.03 | 0.448 | 0.48 | 0.506 | 0.446 | 0.471
14 | HCC-78 | 0.814 | 0.767 | 0.675 | 0.92 | 0.682 | 0.428 | 0.457 | 0.367 | 0.494 | 0.418 | 0.792 | 0.67 | 0.622 | 0.483 | 0.518 | 0.504 | 0.548 | 0.403
15 | A-427 | 1.05 | 0.978 | 0.959 | 0.936 | 0.993 | 0.843 | 0.818 | 0.898 | 0.911 | 0.865 | 1.01 | 0.886 | 1.01 | 0.502 | 0.513 | 0.545 | 0.57 | 0.516
16 | NCI-H441 | 0.593 | 0.71 | 0.382 | 0.57 | 0.364 | 0.888 | 0.495 | 0.837 | 1.23 | 0.638 | 0.411 | 0.604 | 0.613 | 0.197 | 0.179 | 0.182 | 0.204 | 0.157
17 | NCI-H1993 |  | 0.926 | 0.892 | 0.864 | 0.83 | 0.82 | 0.707 | 0.751 | 0.822 | 0.716 | 0.867 | 0.691 | 0.788 | 0.636 | 0.633 | 0.611 | 0.552 | 0.583
